For data set [1], the target named is T1, Nuclear receptor ROR-alpha (Homo sapiens, UniProt P35398).
T1 sequence (P35398 whole entry): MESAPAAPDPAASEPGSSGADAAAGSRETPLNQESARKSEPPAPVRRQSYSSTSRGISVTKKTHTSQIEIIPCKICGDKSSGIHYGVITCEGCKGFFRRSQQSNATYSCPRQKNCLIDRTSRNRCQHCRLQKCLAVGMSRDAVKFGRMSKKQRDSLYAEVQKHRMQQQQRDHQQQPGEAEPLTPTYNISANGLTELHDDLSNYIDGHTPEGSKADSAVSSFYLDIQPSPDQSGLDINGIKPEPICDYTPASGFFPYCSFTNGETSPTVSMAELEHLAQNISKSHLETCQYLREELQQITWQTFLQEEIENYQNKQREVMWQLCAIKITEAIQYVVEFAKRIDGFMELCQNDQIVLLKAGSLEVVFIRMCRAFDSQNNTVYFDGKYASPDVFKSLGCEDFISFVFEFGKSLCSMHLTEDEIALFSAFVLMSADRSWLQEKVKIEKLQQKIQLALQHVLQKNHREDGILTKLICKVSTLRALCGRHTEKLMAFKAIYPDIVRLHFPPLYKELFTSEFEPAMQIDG
Nature of the data set: Inverse agonist activity at GAL4-fused human RORa expressed in HEK293T cells assessed as suppression of basal transcriptional activity after 20 hrs by dual-glo luciferase reporter gene assay. It counts as cell-based, HEK-293T. In general terms: A reporter such as luciferase makes a cellular process visible.

Data set [2] deals with T2, PXR (NR1I2) (Homo sapiens, UniProt O75469).
T2 sequence (O75469 whole entry): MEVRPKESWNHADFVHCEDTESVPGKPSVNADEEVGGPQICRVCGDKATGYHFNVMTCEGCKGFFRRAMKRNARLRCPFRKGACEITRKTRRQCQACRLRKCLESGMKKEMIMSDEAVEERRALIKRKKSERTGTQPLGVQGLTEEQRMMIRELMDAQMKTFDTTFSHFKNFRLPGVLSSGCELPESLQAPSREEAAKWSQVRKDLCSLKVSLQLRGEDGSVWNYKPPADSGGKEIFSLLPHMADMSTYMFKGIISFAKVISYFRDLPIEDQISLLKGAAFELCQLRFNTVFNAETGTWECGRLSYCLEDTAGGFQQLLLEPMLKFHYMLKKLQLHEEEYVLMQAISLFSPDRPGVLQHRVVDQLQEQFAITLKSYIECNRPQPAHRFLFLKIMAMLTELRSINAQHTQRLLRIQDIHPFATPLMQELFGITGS
Nature of the data set: in vitro. The note with it: HEK293T cells expressing GAL4-fused human PXR.
Description: Agonist activity at GAL4-fused human PXR expressed in HEK293T cells assessed as activation of basal transcriptional activity after 20 hrs by dual-glo luciferase reporter gene assay relative to apo-receptor

The target of data set [3] is T3, Nuclear receptor ROR-gamma (Homo sapiens, UniProt P51449).
T3 sequence (P51449 whole entry): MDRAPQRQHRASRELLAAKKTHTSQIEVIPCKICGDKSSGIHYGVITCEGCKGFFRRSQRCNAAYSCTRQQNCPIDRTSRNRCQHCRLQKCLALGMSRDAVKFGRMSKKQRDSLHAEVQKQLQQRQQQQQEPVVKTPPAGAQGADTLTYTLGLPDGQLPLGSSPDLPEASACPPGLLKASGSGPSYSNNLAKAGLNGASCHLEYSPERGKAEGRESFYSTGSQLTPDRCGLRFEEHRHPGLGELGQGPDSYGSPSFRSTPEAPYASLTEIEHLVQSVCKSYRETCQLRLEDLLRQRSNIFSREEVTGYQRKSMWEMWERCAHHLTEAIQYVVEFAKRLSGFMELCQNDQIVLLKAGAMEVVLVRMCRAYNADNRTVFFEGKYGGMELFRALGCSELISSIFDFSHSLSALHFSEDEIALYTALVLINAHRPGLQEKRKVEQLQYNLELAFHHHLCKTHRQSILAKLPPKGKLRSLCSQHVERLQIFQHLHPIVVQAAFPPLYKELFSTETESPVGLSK
Description: Inverse agonist activity at N-terminal 6xHis-tagged human RORc ligand binding domain (241 to 486) expressed in bacterial expression system assessed as inhibition of SRC1 co-activator peptide recruitment after 3 hrs by TR-FRET analysis

Data set [4] has as its target T3, Nuclear receptor ROR-gamma. The source holds these as a separate data set.
Description: Displacement of [3H2]-25-hydroxycholesterol from N-terminal 6xHis-tagged human RORc ligand binding domain (241 to 486) expressed in bacterial expression system after 3 hrs by scintillation counting analysis
The target in data set [5] is T4, Oxysterols receptor LXR-beta (Homo sapiens, UniProt P55055).
T4 sequence (P55055 whole entry): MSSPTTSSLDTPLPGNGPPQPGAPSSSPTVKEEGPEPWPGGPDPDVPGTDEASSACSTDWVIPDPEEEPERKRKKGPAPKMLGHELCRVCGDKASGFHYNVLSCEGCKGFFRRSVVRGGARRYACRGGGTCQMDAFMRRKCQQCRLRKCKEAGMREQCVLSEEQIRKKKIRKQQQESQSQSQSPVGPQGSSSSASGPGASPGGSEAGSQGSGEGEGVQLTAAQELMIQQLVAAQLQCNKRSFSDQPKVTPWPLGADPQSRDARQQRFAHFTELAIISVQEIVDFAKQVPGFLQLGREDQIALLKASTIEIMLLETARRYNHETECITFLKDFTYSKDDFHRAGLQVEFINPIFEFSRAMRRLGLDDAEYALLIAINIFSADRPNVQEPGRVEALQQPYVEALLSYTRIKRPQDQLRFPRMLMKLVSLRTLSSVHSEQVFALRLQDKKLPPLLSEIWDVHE
Description: Agonist activity at GAL4-fused human LXRbeta expressed in HEK293T cells assessed as activation of basal transcriptional activity after 20 hrs by dual-glo luciferase reporter gene assay

Data set [6] addresses T5, Oxysterols receptor LXR-alpha (Homo sapiens, UniProt Q13133).
T5 sequence (Q13133 whole entry): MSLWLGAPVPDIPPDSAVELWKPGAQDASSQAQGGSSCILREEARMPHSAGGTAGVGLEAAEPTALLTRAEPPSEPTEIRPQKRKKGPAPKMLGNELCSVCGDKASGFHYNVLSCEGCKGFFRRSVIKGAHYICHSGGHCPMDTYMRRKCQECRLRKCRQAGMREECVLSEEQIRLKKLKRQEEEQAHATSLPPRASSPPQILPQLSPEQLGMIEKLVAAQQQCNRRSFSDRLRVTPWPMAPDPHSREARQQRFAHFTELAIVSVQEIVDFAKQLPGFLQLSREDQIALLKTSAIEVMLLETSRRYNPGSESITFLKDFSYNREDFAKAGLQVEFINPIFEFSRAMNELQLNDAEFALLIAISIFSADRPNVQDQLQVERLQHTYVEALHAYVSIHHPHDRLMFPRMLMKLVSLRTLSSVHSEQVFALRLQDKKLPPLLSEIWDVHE
Description: Agonist activity at GAL4-fused human LXRalpha expressed in HEK293T cells assessed as activation of basal transcriptional activity after 20 hrs by dual-glo luciferase reporter gene assay

For data set [7], the target named is T6, Nuclear receptor subfamily 1 group I member 2 (Homo sapiens, UniProt O75469).
T6 sequence (O75469 whole entry): T2 sequence (O75469 whole entry)
Nature of the data set: Agonist activity at GAL4-fused human PXR expressed in HEK293T cells assessed as activation of basal transcriptional activity after 20 hrs by dual-glo luciferase reporter gene assay. It counts as cell-based, HEK-293T.

Data set [8] has as its target T3, Nuclear receptor ROR-gamma. This is another data set of the same source.
Description: Inverse agonist activity at GAL4-fused human RORc expressed in HEK293T cells assessed as suppression of basal transcriptional activity after 20 hrs by dual-glo luciferase reporter gene assay

SMILES strings stand for the structures.

For `CCN(c1ccc(C(O)(C(F)(F)F)C(F)(F)F)cc1)S(=O)(=O)c1ccccc1`, the EC50 (as a rule, the concentration giving half of the maximal effect) in data set [1] is 5000 nM; in data set [3] it was 190 nM; in data set [5] it was 246 nM; in data set [6] it was 3000 nM; in data set [7], 39 nM; in data set [8], 593 nM. Further, the fold induction (as a rule, the ratio of treated to control signal) at 20 h in data set [2] stood at 24. For the same molecule, the IC50 (commonly the concentration that gives 50% inhibition) in data set [4] worked out at 245 nM.

In the case of `N#Cc1ccc(S(=O)(=O)N(CC(F)(F)F)c2ccc(C(O)(C(F)(F)F)C(F)(F)F)cc2)cc1`, the half-maximal effective concentration (EC50) was 7000 nM in data set [1]; 61 nM in data set [3]; 902 nM in data set [5]; over 10000 nM in data set [6]; 571 nM in data set [7]; 192 nM in data set [8]. In data set [2], this molecule gave a fold induction at 20 h of 27. The IC50 in data set [4] was 50 nM.

With `O=S(=O)(c1ccc(F)cc1)N(CC(F)(F)F)c1ccc(C(O)(C(F)(F)F)C(F)(F)F)cc1`, the EC50 in data set [1] came to 6000 nM; in data set [3], 19 nM; in data set [5], 385 nM; in data set [6], 719 nM; in data set [7], 194 nM; in data set [8], 89 nM. Further, the fold induction at 20 h in data set [2] was 30. This molecule also came in with a half-maximal inhibitory concentration (IC50) in data set [4] of 34 nM.

The values are drawn from ChEMBL document CHEMBL3091433, “Structure-based design of substituted hexafluoroisopropanol-arylsulfonamides as modulators of RORc” (Bioorg Med Chem Lett, 2013).
